Results from patent US10617622B2, “Hair restoration and/or hair growth promoting composition containing soyasaponin” (AMOREPACIFIC CORPORATION, priority 2015, dated 2020).

Columns and labels:
[1] = tested on: human hair follicle organ; assay: Hair growth promoting effect using human hair follicle organ culture; type: cell-based; conditions: for Average growth length (mm): 8 days after the treatment, hair follicles of a person
Method: The hair follicle organ was isolated from the scalp tissue of the occipital region of a person one at a time, and cultured in William's E medium (containing L-glutamine (2 mM), insulin (10 μg/ml), hydrocortisone (40 ng/ml), antibiotics (1%) antimycotic (1%)).
The hair follicles grown on the third day after culturing were selected and cut into 3 mm. As for the selected hair follicle tissues, those without drug treatment were used as a control group, and the hair follicle tissues were each treated with soyasaponin Aa at 1 ppm, 5 ppm, and 10 ppm. Then, the hair length was measured 8 days after the treatment.

[2] = tested on: dermal papilla cells (DPC); assay: Expression of hair growth factor VEGF in dermal papilla cells (VEGF ELISA); type: cell-based, human; conditions: 20 ppm, 24 hours
Method: In order to evaluate the degree of expression of vascular endothelial growth factor (VEGF) which is a growth factor necessary for transition of hair into the anagen phase as a growth factor necessary for angiogenesis by soyasaponin Aa, an in vitro system was applied to treat the soyasaponin Aa, and the activity thereof was evaluated. For the experiment, 4×10^5 dermal papilla cells (DPC) (P.11) of a person was seeded in a 12-well plate and cultured in DMEM (Dulbecco's modified Eagle's medium; GibcoBRL, Gaithersburg, Md., USA) containing 10% FBS (fetal bovine serum) overnight. After the culture, the cells were treated with soyasaponin Aa at 20 ppm. DMSO was used as a negative control. After 24 hours, the mixing solution with treated soyasaponin Aa was collected, and the degree of VEGF expression by the soyasaponin Aa was confirmed using VEGF ELISA (Vascular endothelial growth factor Enzyme-Linked Immunosorbent Assay; R&D biosystems).

[3] = tested on: human dermal papilla cell line; assay: Proliferation effect on hair follicle dermal papilla cells (WST-1 kit); type: cell-based; conditions: for hDPc proliferation (%): 24 hours after treatment, control = 100
Method: First, in the present invention, a human dermal papilla cell line was used (obtained from Prof. Kwan Oh Sang of dermatology in Seoul National University Hospital). The cell line was cultured for 24 hours in an incubator maintained at 5% CO2, 37° C. using DMEM (Dulbecco's modified Eagle's medium; Gibco BRL, Gaithersburg, Md., USA) containing 10% FBS, and then independently treated with soyasaponin Aa at 1 ppm, 10 ppm, and 20 ppm. DMSO was used as a negative control. Cell proliferation (%) was measured using a WST-1 kit (Roche) 24 hours after the treatment with the test materials.

CC(=O)O[C@@H]1[C@@H](OC(C)=O)[C@H](O[C@@H]2[C@@H](O)[C@H](O[C@@H]3[C@H](O)C(C)(C)C[C@H]4C5=CC[C@@H]6[C@@]7(C)CC[C@H](O[C@@H]8O[C@H](C(=O)O)[C@@H](O)[C@H](O)[C@H]8O[C@@H]8O[C@H](CO)[C@H](O)[C@H](O)[C@H]8O[C@@H]8O[C@H](CO)[C@@H](O)[C@H](O)[C@H]8O)[C@](C)(CO)[C@@H]7CC[C@@]6(C)[C@]5(C)CC[C@@]34C)OC[C@@H]2O)OC[C@H]1OC(C)=O [Soyasaponin Aa, soyasaponin Aa]
Average growth length (mm) ([1]; 1 ppm): 1.71 mm
Average growth length (mm) ([1]; 5 ppm): 2.05 mm
hair length growth effect compared to the control group ([1]; 10 ppm): 1.5 times
Average growth length (mm) ([1]; 10 ppm): 2.46 mm
increase of VEGF expression compared to the control group ([2]; dermal papilla cells): ≥ 4 times
VEGF (ng/ml) in culture medium ([2]; dermal papilla cells of a person, DMSO negative control): 16.7 ng/mL
hDPc proliferation (%) ([3]; 1 ppm): 119%
hDPc proliferation (%) ([3]; 10 ppm): 145%
rate of increase in dermal papilla cell proliferation compared with the control group ([3]; 20 ppm): ≥ 1.7 times
hDPc proliferation (%) ([3]; 20 ppm): 172%
